The values that follow come from article PMC5433098, “Intrinsic Toxin-Derived Peptides Destabilize and Inactivate Clostridium difficile TcdB” (mBio, 2017).

Data set [1] deals with TcdB. The data set is described as follows: In vitro Rac1 glucosylation assay. The conditions noted are these: TcdB 1.2-24 nM, 400 nM GST-Rac1, 40 μM UDP-glucose, 37°C 1 h, 50 µM peptide, n = 3. In kind it is biochemical, Clostridium difficile. Here is the method: (§1) To determine how PepB2 influences the glucosylation activity of TcdB, 400 nM purified GST-Rac1 and 40 μM UDP-glucose were combined with a range of concentrations of TcdB (1.2 nM to 24 nM) or GTD (0.5 nM to 25 nM). These reactions were performed in 20 μl of buffer consisting of 50 mM HEPES (pH 7.5), 100 mM KCl, 2 mM MgCl2, 1 mM MnCl2, and 100 μg/ml BSA. The reactions were carried out at 37°C for 1 h and were stopped by heating the samples at 95°C for 7 min in sample buffer (62.5 mM Tris-HCl [pH 6.8], 2% SDS, 10% glycerol, 5% β-mercaptoethanol, and 0.001% bromphenol blue). An immunoblotting assay was then performed by probing with a mouse monoclonal antibody to total Rac1 (EMD Millipore; catalog no. 05-389) or a mouse monoclonal antibody recognizing nonglucosylated Rac1 (BD Bioscience; catalog no. 610651).

Data set [2] deals with purified recombinant GTD (TcdB aa 1 to 543). The data set is described as follows: In vitro Rac1 glucosylation assay. As to conditions: GTD 0.5-25 nM, 50 µM peptide, n = 2. The data set is classed as biochemical, Clostridium difficile. The procedure: as §1
The subject of data set [3] is TcdB. The data set is described as follows: Intracellular Rac1 glucosylation in CHO-K1 cells (immunoblot). In kind it is cell-based, Clostridium difficile. The conditions noted are these: TcdB 0.037-3.7 pM, 25 h, 50 µM peptide. Here is the method:
CHO-K1 cells were cultured as described above and were seeded the day before the experiment in 24-well plates at a density of 5.0 × 10^4 cells/well. TcdB was then combined with peptide in complete culture medium and added to cells. Following this exposure, total proteins were extracted by removing culture medium and adding cold lysis buffer (1% SDS, 50 mM Tris-HCl [pH 7.4], 5 mM EDTA, and a protease inhibitor mixture). For each condition, equal amounts of total protein were analyzed by immunoblot probing with a mouse monoclonal antibody to total Rac1 (EMD Millipore; catalog no. 05-389) or a mouse monoclonal antibody recognizing nonglucosylated Rac1 (BD Bioscience; catalog no. 610651).
In general terms: A western blot detects proteins with antibodies after separation by electrophoresis.

Data set [4] concerns Bacillus anthracis lethal toxin (LT).
Data set [5] has as its system TcdB2. The data set can be described thus: Surface plasmon resonance (SPR). In kind it is binding, Clostridium difficile. The procedure:
(§2) Surface plasmon resonance (SPR) analysis was performed using a Biacore 3000 instrument (OMRF Biacore Core Facility). TcdB2, TcdB2Δ1853–2366, TcdB2_1851–2366, or BSA was captured on a CM5 sensor chip via amine coupling chemistry based on EDC/N-hydroxysuccinimide (NHS) activation of the carboxymethyl groups of the sensor chip surface. For TcdB2 conjugation, 1 μM TcdB2 or TcdB2Δ1853–2366 was injected at a flow rate of 10 μl/min. TcdB2_1851–2366 was injected at a concentration of 2.5 μM with a flow rate of 10 μl/min. After protein conjugation, ethanolamine was passed over the sensor chip to deactivate unreacted NHS esters. The running buffer used for the binding experiments consisted of 25 mM HEPES (pH 7.4), 150 mM NaCl, and 0.01% Tween 20, and the chip regeneration buffer consisted of 50 mM NaOH and 1 M NaCl.
For orientation: In SPR one partner is held on a chip, and binding of the other changes the refractive index at the surface.

Data set [6] deals with TcdB2Δ1853–2366. The data set is described as follows: Surface plasmon resonance (SPR). In kind it is binding, Clostridium difficile. As to conditions: 40 µM PepB2, 20 μl/min, 25°C. Here is the method: as §2
Data set [7] has as its system TcdB2Δ1853–2366. The data set can be described thus: Cytotoxicity assay in CHO-K1 cells. In kind it is cell-based, Clostridium difficile. As to conditions: 24 h, n = 3. The procedure: (§3) In cytotoxicity assays, CHO-K1 cells were seeded in 96-well plates at a density of 1.0 × 10^4 cells/well and allowed to attach overnight. Cells were incubated with toxin or toxin plus peptide for 24 h, and then cell viability was quantified by the cell counting kit 8 (CCK-8) assay (Sigma), a WST-8 dye-based colorimetric reaction.

For another data set, the system named is TcdA. The data set can be described thus: Cytotoxicity assay in CHO-K1 cells. As to conditions: 24 h, 50 µM peptide, n = 3. In kind it is cell-based, Clostridium difficile. The procedure:
as §3

Data set [8] has as its system TcdB. The data set can be described thus: In vitro autoprocessing assay with IP6. The data set is classed as biochemical, Clostridium difficile. As to conditions: 37 pM TcdB, 500 µM IP6, 1 h 37°C, 50 µM peptide, n = 4. The procedure:
TcdB autoprocessing was activated by incubating 37 pM TcdB with 500 µM inositol hexakisphosphate (IP6) for 1 h at 37°C in a buffer consisting of 50 mM HEPES (pH 7.5), 150 mM NaCl, and 20 mM dithiothreitol (DTT). After the reaction was stopped by heating the samples at 95°C for 7 min in SDS-PAGE sample buffer, cleavage of TcdB was evaluated by an immunoblot assay probing with antibodies to the amino-terminal domain of TcdB (R&D Systems; catalog no. AF6246).

In data set [9] the test system is TcdB2. The data set can be described thus: Cytotoxicity assay in CHO-K1 cells (CCK-8). As to conditions: 24 h, 50 µM peptide, n = 3. In kind it is cell-based, Clostridium difficile. Here is the method: as §3
The subject of data set [10] is TcdB1. The data set can be described thus: Cytotoxicity assay in CHO-K1 cells (CCK-8). In kind it is cell-based, Clostridium difficile. The conditions noted are these: 24 h, 50 µM peptide, n = 3. The procedure:
as §3

For data set [11], the system named is TcdB. The data set can be described thus: TcdB associating with CHO-K1 cells (immunoblot). The data set is classed as cell-based, Clostridium difficile. As to conditions: 37°C, 4 nM TcdB, 50 µM peptide. The procedure:
CHO-K1 cells were cultured as described above and were seeded the day before the experiment in 12-well plates at a density of 1.0 × 10^5 cells/well. These cells were then exposed for 10 min or 30 min at 37°C to 4 nM of TcdB in the presence and absence of peptide. After this exposure, the cells were then washed twice with 1 ml of complete medium, and then total proteins were extracted by adding cold lysis buffer (1% SDS, 50 mM Tris-HCl [pH 7.4], 5 mM EDTA, and a protease inhibitor mixture). For each condition, equal amounts of total protein were analyzed by immunoblot probing with antibodies to the amino-terminal domain of TcdB (R&D Systems; catalog no. AF6246) or an antibody to glyceraldehyde-3-phosphate dehydrogenase (GAPDH) (Abcam; catalog no. AB8245).

The test system of data set [12] is TcdB1. The data set is described as follows: Transepithelial electrical resistance (TER) in T84 cells. The conditions noted are these: polarized T84 cells, 40 pM TcdB1, 50 µM peptide, n = 4.
Data set [13] deals with TcdB. The data set can be described thus: Dialysis (50-kDa cutoff) followed by cytotoxicity assay in CHO-K1 cells. In kind it is cell-based, Clostridium difficile. The conditions noted are these: for TcdB-inhibitory activity retained after dialysis: 125 μM inhibitor in serum-free F-12–K, 50-kDa-cutoff membrane into PBS, about 62.5 μM tested, CHO-K1, 24 h, 0.4 pM TcdB, n = 3. Here is the method: as §3
Inhibitors were diluted to 125 μM in F-12–K medium lacking FBS. Then, 1 ml of the diluted inhibitor was dialyzed with a 50-kDa-cutoff membrane into 2 liters of PBS while stirring. After 3 h, the PBS was discarded and replaced with an additional 1.5 liters of PBS. After 2 more hours of stirring dialysis, the inhibitors were removed from the dialysis tube and diluted into F-12–K medium containing 20% FBS. This produced an inhibitor concentration of approximately 62.5 μM that was then tested for TcdB inhibition using a cytotoxicity assay described above. As controls, a portion of the diluted inhibitors were subjected to mock dialysis conditions and also tested in a cytotoxicity assay.

The subject of data set [14] is bovine serum albumin (BSA). The data set can be described thus: Surface plasmon resonance (SPR), reference channel. In kind it is binding. Here is the method: as §2
A short description of data set [15]: Oligomerization by BS3 cross-linking and SDS-PAGE. As to conditions: 1.4 mM peptide, 5 mM BS3, 25 mM HEPES pH 7.4, 150 mM NaCl, 30 min 25°C; 4 to 20% SDS-PAGE, Coomassie. The data set is classed as physicochemical. The procedure:
Peptides were cross-linked using bis(sulfosuccinimidyl)suberate (BS^3), which is a water-soluble homobifunctional cross-linking agent that reacts with primary amine groups. The cross-linking reaction was performed with 1.4 mM peptide and 5 mM BS^3 in a buffer consisting of 25 mM HEPES (pH 7.4) and 150 mM NaCl. The reaction proceeded for 30 min at 25°C and then was quenched with 100 mM Tris, pH 8.0.

In the case of `CC[C@H](C)[C@H](NC(=O)[C@H](CCCCN)NC(=O)[C@H](CC(=O)O)NC(=O)[C@H](CO)NC(=O)[C@@H](NC(=O)[C@@H](NC(=O)[C@H](CC(N)=O)NC(=O)CNC(=O)[C@H](CCCCN)NC(=O)[C@H](Cc1ccccc1)NC(=O)[C@@H](NC(=O)[C@@H](N)CC(N)=O)C(C)C)[C@@H](C)O)[C@@H](C)CC)C(=O)N[C@@H](CO)C(=O)N[C@@H](Cc1ccccc1)C(=O)N[C@@H](CC(N)=O)C(=O)N[C@@H](Cc1ccccc1)C(=O)N[C@@H](CO)C(=O)N[C@@H](CC(=O)O)C(=O)N[C@@H](CCCCN)C(=O)O` [PepB2], in the data set with TcdB [1], the “effect on in vitro glucosylation of Rac1 by TcdB” value is listed as “did not suppress the in vitro glucosylation of Rac1 by TcdB but instead appeared to increase enzymatic activity”. Besides, the “effect on glucosyltransferase activity of purified recombinant GTD” value in [2] is recorded as “no effect on the glucosyltransferase activity”. Besides, in the data set with TcdB [3], the “effect on Rac1 glucosylation by TcdB in treated cells” value is “prevented Rac1 glucosylation by TcdB in treated cells”. The “inhibition of Bacillus anthracis lethal toxin cytotoxicity” value in data set [4] is reported as “did not block cytotoxicity”. Moreover, the “binding to sensor chip-immobilized TcdB” value in the data set on TcdB2 [5] (SPR, Biacore 3000, CM5 chip, 5 μl/min, 25°C, BSA reference subtracted) is on record as “binds TcdB”. For the same compound, the “number of peptide molecules bound per single molecule of TcdB” value in the data set on TcdB2 [5] (calculated from change in response units on immobilized TcdB) was “approximately 250 molecules”. The “binding to TcdB2Δ1853–2366 compared with equal moles of TcdB2” value in the data set with TcdB2Δ1853–2366 [6] is reported as “much higher levels of PepB2 bound TcdB2 than TcdB2Δ1853–2366”. Moreover, in the data set on TcdB2Δ1853–2366 [7], the “decrease in sensitivity of TcdB2Δ1853–2366 to peptide relative to full-length TcdB2” value came to 10 fold. For the same compound, in the data set with TcdA, the “inhibition of TcdA cytotoxicity” value is “did not block cytotoxicity”. Also, the “effect on IP6-induced TcdB autoproteolysis” value in the data set on TcdB [8] is reported as “enhanced the efficiency of IP6-induced TcdB autoproteolysis”. For the same compound, the “increase of the 50% toxic concentration (TC50) of TcdB2” value in the data set on TcdB2 [9] (range of toxin concentrations) came to 200 fold. Further, in the data set on TcdB1 [10] (range of toxin concentrations), the “increase of the 50% toxic concentration (TC50) of TcdB1” value stood at 500 fold. In addition, the “TcdB association with cells, 10 min” value in the data set with TcdB [11] (10 min, n = 4) was “significantly reduced”. In the data set on TcdB [11] (30 min), the “TcdB association with cells, 30 min” value is on record as “not reduced” and the “TcdB proteolytic cleavage on cells, 30 min” value is given as “causes TcdB to become susceptible to proteolytic cleavage”. For the same compound, the “effect on TcdB-mediated disruption of transepithelial resistance” value in the data set on TcdB1 [12] is reported as “prevented TcdB-mediated disruption of transepithelial resistance”. Also, the “TcdB-inhibitory activity retained after dialysis” value in the data set on TcdB [13] was “TcdB-inhibitory activity was not removed”. Moreover, in the data set with TcdB [13] (retained by 50-kDa-cutoff dialysis membrane), the “size of inhibitory oligomer” value is reported as above 50 kDa. In data set [14], the “binding to BSA-coated reference channel” value is recorded as “did not bind”. In [15], the “oligomerization after BS3 cross-linking” value is “unable to migrate by SDS-PAGE”.
Turning to “PepB1: peptide based on the 1769-to-1787 region of TcdB1 (NVFKDKTLANKLSFNFSDK; UniProt P18177 1769-1787, looked up, fragment)”, the “inhibition of TcdB2 cytotoxicity” value with TcdB2 [9] is recorded as “did not inhibit the cytotoxicity”. In addition, the “inhibition of TcdB1 cytotoxicity” value with TcdB1 [10] is listed as “did not inhibit the cytotoxicity”. Moreover, the “oligomerization after BS3 cross-linking” value in [15] is “migrated into the gel in a similar pattern as uncross-linked control peptides”.
As for `COC(=O)CC[C@@H](C)[C@H]1CC[C@H]2[C@@H]3[C@H](O)C[C@@H]4C[C@H](O)CC[C@]4(C)[C@H]3C[C@H](O)[C@]12C` [methyl cholate, reference compound], in the data set with TcdB [13], the “TcdB-inhibitory activity retained after dialysis” value is reported as “toxin-inhibitory activity was lost”.
